This note sets out measurements from patent US11174249B2, “Cooling composition” (FIRMENICH SA, priority 2017, dated 2021).

A short description of the data set: Solubility of compound of formula (I) in flavor solvents (Crystalline PV instrument, temperature solubility curve). Format: physicochemical. Conditions: 22° C. Here is the method:
A precise amount of the powder was weighed into a transparent 8 mL tube, 3 g of solvent was added, and the tube was sealed with a cap equipped with an integrated overhead stirrer. The tube was immediately transferred to a Crystalline PV instrument (Technobis Crystallization Systems, The Netherlands), and placed into a precooled reactor at 3° C. The sample was heated and stirred in the reactor at a rate of 0.1° C./min up to 60° C. Each reactor of the Crystalline PV instrument is equipped with an LED sensor and a digital camera, and data is acquired as real-time transmittance to detect turbidity or as video images for visualization. The solubility temperature is reached when all particles have dissolved. In order to establish a temperature solubility curve, at least 4 samples with different concentrations are measured. The data are fitted to an exponential curve according to the model of Hoffmann, and solubility as a function of temperature can be calculated by extrapolation. Under this method, the solubility of N-(1H-pyrazol-3-yl)-N-(thiophen-2-ylmethyl)-2-(p-tolyloxy)acetamide in different solvents, which could be used in flavor application, was measured.

Regarding `CCc1ccc(OCC(=O)N(Cc2cccs2)c2cc[nH]n2)cc1` [2-(4-ethylphenoxy)-N-(1H-pyrazol-3-yl)-N-(thiophen-2-ylmethyl)acetamide], the Solubility (in Ethyl lactate) worked out at 26.1%.
With `Cc1ccc(OCC(=O)N(Cc2cccs2)c2ccn[nH]2)cc1` [N-(1H-pyrazol-3-yl)-N-(thiophen-2-ylmethyl)-2-(p-tolyloxy)acetamide], the Solubility is, setting by setting: (in Augeo Clean Multi) 5.7%; (in Dowanol TPM) 5.4%; (in Ethanol abs.) 3.3%; (in Ethyl lactate) 8.6%; (in Mint piperita) 2.1%; (in PG) 0.4%. The molecule further registered a Solubility (in triacetin) of 1.2% and a Solubility (in triethyl citrate) of 3.1%.
